ChEMBL document CHEMBL2380247, “Synthesis and biological evaluation of novel aliphatic amido-quaternary ammonium salts for anticancer chemotherapy: part II” (2013)

Legend:
Assay type in all cases: functional
MDA-MB-231 [1] = experiment: Antiproliferative activity against human MDA-MB-231 cells by SRB assay
PC-3 [2] = experiment: Antiproliferative activity against human PC3 cells at 3 uM by SRB assay
PC-3 [3] = experiment: Antiproliferative activity against human PC3 cells at 10 uM by SRB assay
NCI-H23 [4] = experiment: Antiproliferative activity against human NCI-H23 cells at 0.1 uM by SRB assay
MDA-MB-231 [5] = experiment: Antiproliferative activity against human MDA-MB-231 cells at 0.3 uM by SRB assay
PC-3 [6] = experiment: Antiproliferative activity against human PC3 cells at 0.3 uM by SRB assay
NUGC-3 [7] = experiment: Antiproliferative activity against human NUGC3 cells at 3 uM by SRB assay
NUGC-3 [8] = experiment: Antiproliferative activity against human NUGC3 cells at 0.3 uM by SRB assay
HCT-15 [9] = experiment: Antiproliferative activity against human HCT15 cells at 0.3 uM by SRB assay
PC-3 [10] = experiment: Antiproliferative activity against human PC3 cells at 0.1 uM by SRB assay
ACHN [11] = experiment: Antiproliferative activity against human ACHN cells at 1 uM by SRB assay
MDA-MB-231 [12] = experiment: Antiproliferative activity against human MDA-MB-231 cells at 1 uM by SRB assay
NUGC-3 [13] = experiment: Antiproliferative activity against human NUGC3 cells by SRB assay
ACHN [14] = experiment: Antiproliferative activity against human ACHN cells by SRB assay
NUGC-3 [15] = experiment: Antiproliferative activity against human NUGC3 cells at 0.1 uM by SRB assay
PC-3 [16] = experiment: Antiproliferative activity against human PC3 cells by SRB assay
ACHN [17] = experiment: Antiproliferative activity against human ACHN cells at 0.1 uM by SRB assay
HCT-15 [18] = experiment: Antiproliferative activity against human HCT15 cells by SRB assay
ACHN [19] = experiment: Antiproliferative activity against human ACHN cells at 10 uM by SRB assay
HCT-15 [20] = experiment: Antiproliferative activity against human HCT15 cells at 0.1 uM by SRB assay
MDA-MB-231 [21] = experiment: Antiproliferative activity against human MDA-MB-231 cells at 10 uM by SRB assay
MDA-MB-231 [22] = experiment: Antiproliferative activity against human MDA-MB-231 cells at 3 uM by SRB assay
NCI-H23 [23] = experiment: Antiproliferative activity against human NCI-H23 cells at 10 uM by SRB assay
HCT-15 [24] = experiment: Antiproliferative activity against human HCT15 cells at 1 uM by SRB assay
HCT-15 [25] = experiment: Antiproliferative activity against human HCT15 cells at 10 uM by SRB assay
MDA-MB-231 [26] = experiment: Antiproliferative activity against human MDA-MB-231 cells at 0.1 uM by SRB assay
NCI-H23 [27] = experiment: Antiproliferative activity against human NCI-H23 cells by SRB assay
NUGC-3 [28] = experiment: Antiproliferative activity against human NUGC3 cells at 10 uM by SRB assay
ACHN [29] = experiment: Antiproliferative activity against human ACHN cells at 0.3 uM by SRB assay
NCI-H23 [30] = experiment: Antiproliferative activity against human NCI-H23 cells at 1 uM by SRB assay
NCI-H23 [31] = experiment: Antiproliferative activity against human NCI-H23 cells at 0.3 uM by SRB assay
PC-3 [32] = experiment: Antiproliferative activity against human PC3 cells at 1 uM by SRB assay
NUGC-3 [33] = experiment: Antiproliferative activity against human NUGC3 cells at 1 uM by SRB assay
ACHN [34] = experiment: Antiproliferative activity against human ACHN cells at 3 uM by SRB assay
NCI-H23 [35] = experiment: Antiproliferative activity against human NCI-H23 cells at 3 uM by SRB assay
HCT-15 [36] = experiment: Antiproliferative activity against human HCT15 cells at 3 uM by SRB assay

GI50 (MDA-MB-231 [1]) [nM]	GI50 (ACHN [14]) [nM]	GI50 (PC-3 [16]) [nM]	GI50 (HCT-15 [18]) [nM]	SMILES	growth, % of control at 3 µM (PC-3 [2]) [%]	growth, % of control at 10 µM (PC-3 [3]) [%]	growth, % of control at 0.1 µM (NCI-H23 [4]) [%]	growth, % of control at 0.3 µM (MDA-MB-231 [5]) [%]	growth, % of control at 0.3 µM (PC-3 [6]) [%]	growth, % of control at 3 µM (NUGC-3 [7]) [%]	growth, % of control at 0.3 µM (NUGC-3 [8]) [%]	growth, % of control at 0.1 µM (PC-3 [10]) [%]	growth, % of control at 1 µM (ACHN [11]) [%]	growth, % of control at 1 µM (MDA-MB-231 [12]) [%]	GI50 (NUGC-3 [13]) [nM]	growth, % of control at 0.1 µM (NUGC-3 [15]) [%]	growth, % of control at 0.1 µM (ACHN [17]) [%]	growth, % of control at 10 µM (ACHN [19]) [%]	growth, % of control at 0.1 µM (HCT-15 [20]) [%]	growth, % of control at 10 µM (MDA-MB-231 [21]) [%]	other results
1410	1890	530	2830	CCCCCCCCCCCCCC(=O)N(C)CCC[N+](C)(C)Cc1ccccc1	4.38	-13.1	81	106	87.4	8.51	90	101	99.3	97.2	430	84.5	107	1.92	89.9	-2.09	growth, % of control at 0.3 µM (HCT-15 [9]): 86.7%; growth, % of control at 3 µM (MDA-MB-231 [22]): 44.2%; growth, % of control at 10 µM (NCI-H23 [23]): -11.5%; growth, % of control at 1 µM (HCT-15 [24]): 93.6%; growth, % of control at 10 µM (HCT-15 [25]): 25.1%; growth, % of control at 0.1 µM (MDA-MB-231 [26]): 105%; GI50 (NCI-H23 [27]): 660 nM; growth, % of control at 10 µM (NUGC-3 [28]): -11.6%; growth, % of control at 0.3 µM (ACHN [29]): 109%; growth, % of control at 1 µM (NCI-H23 [30]): 70.4%; growth, % of control at 0.3 µM (NCI-H23 [31]): 80%; growth, % of control at 1 µM (PC-3 [32]): 56.5%; growth, % of control at 1 µM (NUGC-3 [33]): 43.8%; growth, % of control at 3 µM (ACHN [34]): 72.3%; growth, % of control at 3 µM (NCI-H23 [35]): 14.7%; growth, % of control at 3 µM (HCT-15 [36]): 78.5%
300	100	210	> 10000	C=CC[N+](CC)(CC)CCN(C)C(=O)CCCCCCCCCCCCC	-6	-21.6	88	82.5	74.9	-3.5	45.3	91.2	16.8	28.7	140	109	69	-9	97.4	-11.6	growth, % of control at 0.3 µM (HCT-15 [9]): 96.8%; growth, % of control at 3 µM (MDA-MB-231 [22]): 6.6%; growth, % of control at 10 µM (NCI-H23 [23]): -10%; growth, % of control at 1 µM (HCT-15 [24]): 96.3%; growth, % of control at 10 µM (HCT-15 [25]): 57.9%; growth, % of control at 0.1 µM (MDA-MB-231 [26]): 93.2%; GI50 (NCI-H23 [27]): 240 nM; growth, % of control at 10 µM (NUGC-3 [28]): -7.8%; growth, % of control at 0.3 µM (ACHN [29]): 42.6%; growth, % of control at 1 µM (NCI-H23 [30]): 24.2%; growth, % of control at 0.3 µM (NCI-H23 [31]): 74.2%; growth, % of control at 1 µM (PC-3 [32]): 12.2%; growth, % of control at 1 µM (NUGC-3 [33]): 1.1%; growth, % of control at 3 µM (ACHN [34]): 8.6%; growth, % of control at 3 µM (NCI-H23 [35]): 7.8%; growth, % of control at 3 µM (HCT-15 [36]): 85.1%
–	–	480	580	CCCCCCCCCCCCCCCC(=O)N1CC[N+](C)(C)CC1	–	–	–	–	–	–	–	–	–	–	290	–	–	–	–	–	–
360	230	260	4330	CCCCCCCCCCCCCC(=O)N(C)CC[N+](CC)(CC)CC	-7.5	-22.4	83.6	86.6	84.7	-4.9	56.2	95.7	24.1	33.2	160	96.3	103	-15.5	90.7	-8	growth, % of control at 3 µM (MDA-MB-231 [22]): 11.3%; growth, % of control at 10 µM (NCI-H23 [23]): -7.7%; growth, % of control at 1 µM (HCT-15 [24]): 88%; growth, % of control at 10 µM (HCT-15 [25]): 43.1%; growth, % of control at 0.1 µM (MDA-MB-231 [26]): 92.9%; GI50 (NCI-H23 [27]): 280 nM; growth, % of control at 10 µM (NUGC-3 [28]): -7.5%; growth, % of control at 0.3 µM (ACHN [29]): 63.2%; growth, % of control at 1 µM (NCI-H23 [30]): 29%; growth, % of control at 0.3 µM (NCI-H23 [31]): 76.2%; growth, % of control at 1 µM (PC-3 [32]): 11.7%; growth, % of control at 1 µM (NUGC-3 [33]): 3%; growth, % of control at 3 µM (ACHN [34]): 9.4%; growth, % of control at 3 µM (NCI-H23 [35]): 3.7%; growth, % of control at 3 µM (HCT-15 [36]): 79.2%
